Test results reported in patent publication US10947252B2, “Inhibitors of KEAP1-Nrf2 protein-protein interaction” (Janssen Pharmaceutica NV, priority 2018, dated 2021).

Key:
[1] = molecular target: Kelch domain of human KEAP1 (321-624 aa) (Homo sapiens (Human), UniProt Q14145); experiment: KEAP1 KELCH ThermoFluor binding assay; details: KEAP Kelch […], 1,8-ANS, pH 7.0, average of results obtained, read-out: Tf Kd;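 also: Ligand-induced melting temperature shift of E. coli-expressed KEAP1 Kelch protein, Kd estimated from concentration-response curves of ΔTm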
[2] = system: Glo-Response ARE-luc2P HEK293 cell line; experiment: ARE luciferase reporter cell-based assay; details: Homo sapiens, HEK293, 24 h, average of results obtained;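 also: luciferase signal tracks Nrf2 activation of the ARE once compounds disrupt KEAP1-Nrf2 binding, read with One-Glo reagent, DMSO serving as low control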

Chain of Kelch domain of human KEAP1 (321-624 aa) (Q14145 321-624): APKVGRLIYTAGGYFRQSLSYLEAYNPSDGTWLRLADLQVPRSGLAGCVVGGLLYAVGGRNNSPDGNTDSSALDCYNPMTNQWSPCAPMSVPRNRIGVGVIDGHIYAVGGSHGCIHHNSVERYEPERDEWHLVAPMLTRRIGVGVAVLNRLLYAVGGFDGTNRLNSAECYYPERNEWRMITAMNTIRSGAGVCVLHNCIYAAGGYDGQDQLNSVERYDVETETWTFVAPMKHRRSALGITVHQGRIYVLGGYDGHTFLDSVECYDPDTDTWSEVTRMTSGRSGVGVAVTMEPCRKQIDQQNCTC

| SMILES | Kd [1] | EC50 [2] |
| --- | --- | --- |
| Cc1cnc2c(c1)S(=O)(=O)N(Cc1nc([C@H](CC(=O)O)c3ccn4c(C(F)(F)F)nnc4c3C)ccc1C)C[C@@H]1CCCCN21 (single isomer, unassigned) [Example 489, (*R)-3-(8-Methyl-3-(trifluoromethyl)-[1,2,4]triazolo[4,3-a]pyridin-7-yl)-3-(5-methyl-6-(((*S)-3-methyl-5,5-dioxido-7,7a,8,9,10,11-hexahydro-6H-dipyrido[2,1-d:2′,3′-f][1,2,5]thiadiazepin-6-yl)methyl)pyridin-2-yl)propanoic Acid] | < 1 nM | 29.8 nM |
| Cc1cnc2c(c1)S(=O)(=O)N(Cc1nc([C@@H](CC(=O)O)c3ccn4c(C(F)(F)F)nnc4c3C)ccc1C)C[C@H]1CCCCN21 (single isomer, unassigned) [Example 491, (*S)-3-(8-Methyl-3-(trifluoromethyl)-[1,2,4]triazolo[4,3-a]pyridin-7-yl)-3-(5-methyl-6-(((*R)-3-methyl-5,5-dioxido-7,7a,8,9,10,11-hexahydro-6H-dipyrido[2,1-d:2′,3′-f][1,2,5]thiadiazepin-6-yl)methyl)pyridin-2-yl)propanoic Acid] | < 1 nM | 5.53 nM |
| Cc1cnc2c(c1)S(=O)(=O)N(Cc1nc([C@H](CC(=O)O)c3ccn4c(C(F)(F)F)nnc4c3C)ccc1C)C[C@H]1CCCCN21 (single isomer, unassigned) [Example 492, (*R)-3-(8-Methyl-3-(trifluoromethyl)-[1,2,4]triazolo[4,3-a]pyridin-7-yl)-3-(5-methyl-6-(((*R)-3-methyl-5,5-dioxido-7,7a,8,9,10,11-hexahydro-6H-dipyrido[2,1-d:2′,3′-f][1,2,5]thiadiazepin-6-yl)methyl)pyridin-2-yl)propanoic Acid] | < 1 nM | 12.9 nM |
| Cc1ccc([C@@H](CC(=O)O)c2ccn3c(C(F)(F)F)nnc3c2C)nc1CN1CC2(COC2)Oc2ncccc2S1(=O)=O (single isomer, unassigned) [Example 494, (*S)-3-(6-((1′,1′-Dioxidospiro[oxetane-3,4′-pyrido[2,3-b][1,4,5]oxathiazepin]-2′(3′H)-yl)methyl)-5-methylpyridin-2-yl)-3-(8-methyl-3-(trifluoromethyl)-[1,2,4]triazolo[4,3-a]pyridin-7-yl)propanoic Acid] | < 1 nM | 577 nM |
| Cc1ccc([C@H](CC(=O)O)c2ccn3c(C(F)(F)F)nnc3c2C)nc1CN1CC2(COC2)Oc2ncccc2S1(=O)=O (single isomer, unassigned) [Example 495, (*R)-3-(6-((1′,1′-Dioxidospiro[oxetane-3,4′-pyrido[2,3-b][1,4,5]oxathiazepin]-2′(3′H)-yl)methyl)-5-methylpyridin-2-yl)-3-(8-methyl-3-(trifluoromethyl)-[1,2,4]triazolo[4,3-a]pyridin-7-yl)propanoic Acid] | < 1 nM | 2860 nM |
| Cc1ccc([C@@H](CC(=O)O)c2ccn3c(C(F)(F)F)nnc3c2C)nc1CN1C[C@@H]2CCCCN2c2ncc(F)cc2S1(=O)=O (single isomer, unassigned) [Example 497, (*S)-3-(6-(((*S)-3-Fluoro-5,5-dioxido-7,7a,8,9,10,11-hexahydro-6H-dipyrido[2,1-d:2′,3′-f][1,2,5]thiadiazepin-6-yl)methyl)-5-methylpyridin-2-yl)-3-(8-methyl-3-(trifluoromethyl)-[1,2,4]triazolo[4,3-a]pyridin-7-yl)propanoic Acid] | < 1 nM | 4.47 nM |
| Cc1ccc([C@H](CC(=O)O)c2ccn3c(C(F)(F)F)nnc3c2C)nc1CN1C[C@@H]2CCCCN2c2ncc(F)cc2S1(=O)=O (single isomer, unassigned) [Example 498, (*R)-3-(6-(((*S)-3-Fluoro-5,5-dioxido-7,7a,8,9,10,11-hexahydro-6H-dipyrido[2,1-d:2′,3′-f][1,2,5]thiadiazepin-6-yl)methyl)-5-methylpyridin-2-yl)-3-(8-methyl-3-(trifluoromethyl)-[1,2,4]triazolo[4,3-a]pyridin-7-yl)propanoic Acid] | < 1 nM | 14.7 nM |
| Cc1ccc([C@@H](CC(=O)O)c2ccn3c(C(F)(F)F)nnc3c2C)nc1CN1CC2(CC2)Oc2ncc(F)cc2S1(=O)=O (single isomer, unassigned) [Example 509, (*S)-3-(6-((8′-Fluoro-1′,1′-dioxidospiro[cyclopropane-1,4′-pyrido[2,3-b][1,4,5]oxathiazepin]-2′(3′H)-yl)methyl)-5-methylpyridin-2-yl)-3-(8-methyl-3-(trifluoromethyl)-[1,2,4]triazolo[4,3-a]pyridin-7-yl)propanoic Acid] | < 1 nM | 70.4 nM |
| Cc1ccc([C@H](CC(=O)O)c2ccn3c(C(F)(F)F)nnc3c2C)nc1CN1CC2(CC2)Oc2ncc(F)cc2S1(=O)=O (single isomer, unassigned) [Example 510, (*R)-3-(6-((8′-Fluoro-1′,1′-dioxidospiro[cyclopropane-1,4′-pyrido[2,3-b][1,4,5]oxathiazepin]-2′(3′H)-yl)methyl)-5-methylpyridin-2-yl)-3-(8-methyl-3-(trifluoromethyl)-[1,2,4]triazolo[4,3-a]pyridin-7-yl)propanoic Acid] | < 1 nM | 314 nM |
| CCc1c([C@@H](CC(=O)O)c2ccc(C)c(CN3C[C@H]4CCCCN4c4ncc(C)cc4S3(=O)=O)c2)ccn2c(C(F)(F)F)nnc12 (single isomer, unassigned) [Example 516, (*S)-3-(8-Ethyl-3-(trifluoromethyl)-[1,2,4]triazolo[4,3-a]pyridin-7-yl)-3-(4-methyl-3-(((*R)-3-methyl-5,5-dioxido-7,7a,8,9,10,11-hexahydro-6H-dipyrido[2,1-d:2′,3′-f][1,2,5]thiadiazepin-6-yl)methyl)phenyl)propanoic Acid] | < 1 nM | 11.1 nM |
| Cc1ccc([C@@H](CC(=O)O)c2ccn3c(C(F)(F)F)nnc3c2C)nc1CN1C[C@@H]2CCCCN2c2ncc(Cl)cc2S1(=O)=O (single isomer, unassigned) [Example 519, (*S)-3-(6-(((*S)-3-Chloro-5,5-dioxido-7,7a,8,9,10,11-hexahydro-6H-dipyrido[2,1-d:2′,3′-f][1,2,5]thiadiazepin-6-yl)methyl)-5-methylpyridin-2-yl)-3-(8-methyl-3-(trifluoromethyl)-[1,2,4]triazolo[4,3-a]pyridin-7-yl)propanoic Acid] | < 1 nM | 16 nM |
| Cc1ccc([C@@H](CC(=O)O)c2ccn3c(C(F)(F)F)nnc3c2C)nc1CN1C[C@H]2CCCCN2c2ncc(Cl)cc2S1(=O)=O (single isomer, unassigned) [Example 520, (*S)-3-(6-(((*R)-3-Chloro-5,5-dioxido-7,7a,8,9,10,11-hexahydro-6H-dipyrido[2,1-d:2′,3′-f][1,2,5]thiadiazepin-6-yl)methyl)-5-methylpyridin-2-yl)-3-(8-methyl-3-(trifluoromethyl)-[1,2,4]triazolo[4,3-a]pyridin-7-yl)propanoic Acid] | < 1 nM | 15.6 nM |
| Cc1ccc([C@H](CC(=O)O)c2ccn3c(C(F)(F)F)nnc3c2C)nc1CN1C[C@@H]2CCCCN2c2ncc(Cl)cc2S1(=O)=O (single isomer, unassigned) [Example 521, (*R)-3-(6-(((*S)-3-Chloro-5,5-dioxido-7,7a,8,9,10,11-hexahydro-6H-dipyrido[2,1-d:2′,3′-f][1,2,5]thiadiazepin-6-yl)methyl)-5-methylpyridin-2-yl)-3-(8-methyl-3-(trifluoromethyl)-[1,2,4]triazolo[4,3-a]pyridin-7-yl)propanoic Acid] | < 1 nM | 1.97 nM |
| Cc1ccc([C@@H](CC(=O)O)c2ccn3c(C(F)F)nnc3c2C)cc1CN1CC2(CCOCC2)Oc2ccc(F)cc2S1(=O)=O (single isomer, unassigned) [Example 525, (*R)-3-(3-(Difluoromethyl)-8-methyl-[1,2,4]triazolo[4,3-a]pyridin-7-yl)-3-(3-((8-fluoro-1,1-dioxido-2′,3′,5′,6′-tetrahydrospiro[benzo[b][1,4,5]oxathiazepine-4,4′-pyran]-2(3H)-yl)methyl)-4-methylphenyl)propanoic Acid] | < 1 nM | 38.8 nM |
| Cc1ccc([C@H](CC(=O)O)c2ccn3c(C(F)F)nnc3c2C)cc1CN1CC2(CC2)Oc2ncc(F)cc2S1(=O)=O (single isomer, unassigned) [Example 527, (*S)-3-(3-(Difluoromethyl)-8-methyl-[1,2,4]triazolo[4,3-a]pyridin-7-yl)-3-(3-((8′-fluoro-1′,1′-dioxidospiro[cyclopropane-1,4′-pyrido[2,3-b][1,4,5]oxathiazepin]-2′(3′H)-yl)methyl)-4-methylphenyl)propanoic Acid] | < 1 nM | 22.2 nM |
| Cc1ccc([C@@H](CC(=O)O)c2ccn3c(C(F)F)nnc3c2C)cc1CN1CC2(CC2)Oc2ncc(F)cc2S1(=O)=O (single isomer, unassigned) [Example 528, (*R)-3-(3-(Difluoromethyl)-8-methyl-[1,2,4]triazolo[4,3-a]pyridin-7-yl)-3-(3-((8′-fluoro-1′,1′-dioxidospiro[cyclopropane-1,4′-pyrido[2,3-b][1,4,5]oxathiazepin]-2′(3′H)-yl)methyl)-4-methylphenyl)propanoic Acid] | < 1 nM | 236 nM |
| Cc1ccc([C@@H](CC(=O)O)c2ccn3c(C(F)F)nnc3c2C)cc1CN1CC2(CC2)Oc2ncc(Cl)cc2S1(=O)=O (single isomer, unassigned) [Example 531, (*R)-3-(3-((8′-Chloro-1′,1′-dioxidospiro[cyclopropane-1,4′-pyrido[2,3-b][1,4,5]oxathiazepin]-2′(3′H)-yl)methyl)-4-methylphenyl)-3-(3-(difluoromethyl)-8-methyl-[1,2,4]triazolo[4,3-a]pyridin-7-yl)propanoic Acid] | < 1 nM | 113 nM |
